Experimental data as given in publication PMC11530130, “Peripherally restricted PICK1 inhibitor mPD5 ameliorates pain behaviors in murine inflammatory and neuropathic pain models” (JCI Insight, 2024).
Values joined by “and” are separate entries in the source; they are usually repeats but may differ in a detail not shown here. Equal entries are not always repeated.

How the values were obtained:
naive mice [1] = experiment: Conditioned place preference (CPP); assay type: in vivo, mouse; conditions: for locomotion during conditioning compared with PBS / time in the drug-paired compartment during the posttest compared with PBS: naive mice
Description: compartment and that a single exposure of psychostimulants in the grey compartment sufficiently changes the preference towards that compartment (9-11). For further details of the setup, we refer to (10). Experiments lasted three days with exposure sessions on days one and two and a preference test on day three. On each day, animals were moved from the housing facility to the experimental room and allowed to acclimatize for at least 60 min before initiation of the experiment. mPD5 was paired with the grey compartment, known to be the least preferred compartment (10, 11). All mice from a cage were tested at the same time, but not all were given the same treatment. Mice were weighed and injected s.c. with PBS or 30 μmol/kg mPD5. For the sePP on CFA-injected mice, the injury was induced as described in “Induction of inflammatory pain (CFA model)”-section. sePP was run on day 3-5 after CFA-injection, and von Frey was performed on days 0, 2, and 5 as described in the “Mechanically-evoked pain (von Frey)”-section.
Conditioned place preference.
CPP was performed in Med-Associates square behavioral chambers fitted with beam-break movement detection. Chambers are split in two (27.3 x 13.5 cm each) with a red Plexiglas wall (allowing penetrance of the beams) and a predictable-preference design. Least-preferred compartment: white walls + floor and a transparent lid. Preferred compartment: horizontal grey and black stripes on the wall and lid with a light grey upside-down Lego® floor. Mice can freely move between the two compartments through a 4x4 cm opening in the separating wall during pretest and posttest but are confined to one compartment during conditionings.
Pretest (DAY 1): To test the basal preference of the mice, they were placed in the chamber to freely move between the two compartments for 30 min. Time spent in each compartment was […]
compartment was used to define three even groups.
Conditioning (DAY 2-9): Mice were injected s.c. with PBS, morphine (10 mg/kg) (RH Pharmacy, Denmark, Vnr. 475249), or 10 μmol/kg mPD5 immediately before being placed in and confined to the appropriate compartment for 40 min. Drug was paired to the least-preferred compartment, conditioning was alternated so that mice were never placed in the same compartment two days in a row, and the day on which they were exposed to drug was […]
Preference test (DAY 10): Mice were allowed to freely move between the two compartments […]
Ultrasonic vocalisation (USV) recordings.
Mice were left in Med-Associates square behavioral chambers (27 cm x 27 cm) to freely roam around for 60 min, four days in a row. The first two days were for habituation, but on the third and fourth days, USV recordings were performed using an Avisoft UltraSoundGate 416Hb recording interface (Model CM16-CMPA, Avisoft Bioacoustics, Germany) at a sampling rate of 250,000 Hz in 16-bit format kindly loaned by Morgan Thomsen and Simone Tonetto (Department of Neuroscience, University of Copenhagen, Copenhagen). On day three, both control and SNI mice were placed directly in the chambers and recorded for 60 min. On day four, control mice were injected s.c. with PBS, and SNI mice were injected with either 10 μmol/kg mPD5 or PBS immediately before being placed in the chambers and recorded for 60 min. The recordings were analyzed using the Avisoft SASLab Pro software (Version 5.02.07, Avisoft Bioacoustics) as described in (12), applying a fast fourier transformation (FFT) (1024 FTT length, 100% frame size, Blackman window, and 87.5% time window overlap).
Spectrograms were produced at a frequency resolution of 244 Hz and a time resolution of 0.512 ms. Spectrogram analysis was performed using an automatic whistle-tracking algorithm with an element separation threshold of -45 dB, 1 ms minimal duration, and a hold time of 10 ms.

naive mice [2] = experiment: Capsaicin test (licking time); assay type: in vivo, mouse; set-up: capsaicin-induced licking time, individual mice: unit not given here; conditions: for capsaicin-induced licking time, individual mice: female and male; for effect on capsaicin-induced licking time: naive mice, both sexes
Description: Naïve wildtype male and female mice (10 weeks of age) were habituated to handling and experimental set up for one week prior to data collection. […]
Mice were pretreated with 10 μmol/kg mPD5, 10 mg/kg morphine (RH Pharmacy, Denmark, Vnr. 475249), or PBS 45 min before habituation to observation container (glass cylinder surrounded by mirrors on 2 sides) for 15 min. Mice then received an intraplantar injection of 20 µl capsaicin (1.6 ug/paw) (sigma CAS Number:404-86-4, diluted with 1:1:8 solution of tween-20, 70% ethanol, and MilliQ water) in one hind paw and were reintroduced to the observation container. Mice were recorded for three min after i.pl. injection with capsaicin and euthanized the same day. Mice were scored manually for the amount of time spent paw licking within three min after capsaicin administration. […]
Females were weighed on a regular basis from removal of the males […]
Unless otherwise stated, all data were analysed using GraphPad Prism 9.4.1. and presented as mean +-SEM with the significance level set to p < 0.05. For locomotion and elevated plus maze, Ethovision XT 13 (Noldus) was used to track the distance travelled by each animal. For within group analysis (i.e., von Frey experiments), two-way ANOVA followed by Dunnett’s post hoc test was used. For between group analysis of multiple time points (i.e., locomotion experiments), two-way ANOVA was used without post hoc test due to lack of treatment significance in the ANOVA test. For the limb use experiment, data pre versus post treatment was analysed with a Kruskal Wallis test due to the non-parametric nature of the data. When analysing histograms of three groups or more (i.e., marble burying and elevated plus maze),

With CN1CC[C@]23c4c5ccc(O)c4O[C@H]2[C@@H](O)C=C[C@H]3[C@H]1C5 [morphine] as the molecule, how does the “Conditioned place preference, Fig 6O, individual mice” value (naive mice [1]; 10 mg/kg) read?
Its value is 641.2 and 758.05 and 523.1 and 617.25 and 422.75 and 543.85 and 370.9 and 516.75.

And the “CPP conditioning session value, Fig 6N, individual mice” value (shortened to “CPP conditioning session value, Fig 6N”) (naive mice [1]; Cond1, 10 mg/kg)?
Its value is 9137.98 and 12057.9 and 7914.76 and 12165.9 and 13969.3 and 7487.52 and 2666.42 and 10528.9.

And the “CPP conditioning session value, Fig 6N” value (naive mice [1]; Cond2, 10 mg/kg)?
Its value is 15370.1 and 15969.7 and 11493.6 and 16698.2 and 17811.8 and 8242.22 and 9139.38 and 16599.9.

What about the “CPP conditioning session value, Fig 6N” value (naive mice [1]; Cond3, 10 mg/kg) of the same molecule?
Its value is 15699.6 and 17306.6 and 14219.9 and 18863.2 and 19954.9 and 11799.1 and 7739.36 and 18695.7.

And the “CPP conditioning session value, Fig 6N” value (naive mice [1]; Cond4, 10 mg/kg)?
Its value is 14707.1 and 15254.9 and 15074.4 and 17950.9 and 21599.6 and 11535.1 and 8924.2 and 17697.5.

What about the “locomotion during conditioning compared with PBS” value (naive mice [1]; s.c. 10 mg/kg) of the same molecule?
The value was “significantly increased locomotion”.

What about the “time in the drug-paired compartment during the posttest compared with PBS” value (naive mice [1]; s.c. 10 mg/kg) of the same molecule?
The value was “significantly more time in the drug-paired compartment”.

What about the “capsaicin-induced licking time, individual mice” value (naive mice [2]; 10 mg/kg) of the same molecule?
Its value is 0.

What about the “effect on capsaicin-induced licking time” value (naive mice [2]; s.c. 10 mg/kg) of the same molecule?
Its value is “significantly reduced the licking time”.

Which “Conditioned place preference, Fig 6O, individual mice” value (naive mice [1]; 10 umol/kg) does the source give for CCCCCCCCCCCCCC(=O)N(CCOCCOCCC(=O)N[C@@H](Cc1c[nH]cn1)C(=O)N[C@@H](Cc1c[nH]c2ccccc12)C(=O)N[C@@H](CC(C)C)C(=O)N[C@@H](CCCCN)C(=O)N[C@H](C(=O)O)C(C)C)CCOCCOCCC(=O)N[C@@H](Cc1c[nH]cn1)C(=O)N[C@@H](Cc1c[nH]c2ccccc12)C(=O)N[C@@H](CC(C)C)C(=O)N[C@@H](CCCCN)C(=O)N[C@H](C(=O)O)C(C)C [mPD5, myristoyl-NPEG4-(HWLKV)2] here?
The value was 422.4 and 657.8 and 145.75 and 377.8 and 709.7 and 623.7 and 240.55 and 244.05.

And the “CPP conditioning session value, Fig 6N” value (naive mice [1]; Cond1, 10 umol/kg)?
The value was 2308.61 and 1809.85 and 2224.56 and 2674.86 and 871.493 and 1226.84 and 1378.23 and 2217.21.

What about the “CPP conditioning session value, Fig 6N” value (naive mice [1]; Cond2, 10 umol/kg) of the same molecule?
Its value is 1180.49 and 1059.56 and 1212.87 and 2147.54 and 783.988 and 1076.18 and 1174.28 and 2455.85.

And the “CPP conditioning session value, Fig 6N” value (naive mice [1]; Cond3, 10 umol/kg)?
The value was 1906.76 and 766.515 and 1139.87 and 2374.29 and 1205.41 and 1378.46 and 1356.35 and 1697.51.

And the “CPP conditioning session value, Fig 6N” value (naive mice [1]; Cond4, 10 umol/kg)?
The value was 2079.11 and 1457.65 and 2495.22 and 2149.64 and 1597.67 and 2463.25 and 958.529 and 1951.51.

What about the “locomotion during conditioning compared with PBS” value (naive mice [1]; s.c. 10 μmol/kg) of the same molecule?
The value was “did not affect locomotion”.

What about the “time in the drug-paired compartment during the posttest compared with PBS” value (naive mice [1]; s.c. 10 μmol/kg) of the same molecule?
Its value is “did not”.

What about the “capsaicin-induced licking time, individual mice” value (naive mice [2]; 10 umol/kg, female mice) of the same molecule?
The value was 12.96 and 9.28 and 8.67 and 18.61.

What about the “capsaicin-induced licking time, individual mice” value (naive mice [2]; 10 umol/kg, male mice) of the same molecule?
Its value is 12.98 and 14.19 and 30.63.

And the “effect on capsaicin-induced licking time” value (naive mice [2]; s.c. 10 μmol/kg)?
Its value is “no effect on time spent licking”.
